{"source": "paper PMC5218480", "about": "(PLoS ONE, 2017)", "test_system": "MV-4-11 cells", "experiment": "Gene expression microarray analysis (Affymetrix PrimeView) and GSEA", "assay_type": "cell-based, human", "parameters": "RFU PODN (11730768_x_at) / Fold change /veh PODN (11730768_x_at) / RFU LINC00158 (11744669_a_at) / Fold change /veh LINC00158 (11744669_a_at) / RFU DUSP10 (11751237_a_at) / Fold change /veh DUSP10 (11751237_a_at) / RFU ID3 (11757404_x_at) / Fold change /veh ID3 (11757404_x_at) / RFU PLEKHG5 (11737974_s_at) / Fold change /veh PLEKHG5 (11737974_s_at) / RFU LRRC4B (11730491_at) / Fold change /veh LRRC4B (11730491_at) / RFU GIMAP4 (11747438_a_at) / Fold change /veh GIMAP4 (11747438_a_at) / RFU KRT8 (11758183_x_at) / Fold change /veh KRT8 (11758183_x_at) / RFU CNN1 (11734310_a_at) / Fold change /veh CNN1 (11734310_a_at) / RFU VPS37D (11726825_at) / Fold change /veh VPS37D (11726825_at) / RFU C10orf10 (11716522_x_at) / Fold change /veh C10orf10 (11716522_x_at) / RFU KIR2DL2 /// KIR2DL4 /// KIR2DL5A /// KIR2DL5B /// KIR2DS1 /// KIR2DS2 /// KIR2DS3 /// KIR2DS4 /// KIR3DL3 /// KIR3DL3 /// KIR3DS1 (11738374_at) / Fold change /veh KIR2DL2 /// KIR2DL4 /// KIR2DL5A /// KIR2DL5B /// KIR2DS1 /// KIR2DS2 /// KIR2DS3 /// KIR2DS4 /// KIR3DL3 /// KIR3DL3 /// KIR3DS1 (11738374_at) / RFU C1QL1 (11718748_at) / Fold change /veh C1QL1 (11718748_at) / RFU TMPRSS4 (11747572_a_at) / Fold change /veh TMPRSS4 (11747572_a_at) / RFU HAMP (11756126_x_at) / Fold change /veh HAMP (11756126_x_at) / RFU RNFT2 (11725882_a_at) / Fold change /veh RNFT2 (11725882_a_at) / RFU NR4A2 (11747474_a_at) / Fold change /veh NR4A2 (11747474_a_at) / RFU ABCC12 (11746883_a_at) / Fold change /veh ABCC12 (11746883_a_at) / RFU TMEM136 (11760407_x_at) / Fold change /veh TMEM136 (11760407_x_at) / RFU CLDN22 /// WWC2 (11732394_at) / Fold change /veh CLDN22 /// WWC2 (11732394_at) / RFU HLA-DPB1 (11760878_x_at) / Fold change /veh HLA-DPB1 (11760878_x_at) / RFU SPINT1 (11716480_a_at) / Fold change /veh SPINT1 (11716480_a_at) / RFU GAP43 (11754022_s_at) / Fold change /veh GAP43 (11754022_s_at) / RFU A4GNT (11735810_at) / Fold change /veh A4GNT (11735810_at) / RFU PRB3 (11715151_x_at) / Fold change /veh PRB3 (11715151_x_at) / RFU TUBB4B (11761932_at) / Fold change /veh TUBB4B (11761932_at) / RFU CAPN14 (11732068_a_at) / Fold change /veh CAPN14 (11732068_a_at) / RFU TMCC2 (11721928_a_at) / Fold change /veh TMCC2 (11721928_a_at) / RFU IRGQ (11745062_a_at) / Fold change /veh IRGQ (11745062_a_at) / RFU FAM174B (11720279_a_at) / Fold change /veh FAM174B (11720279_a_at) / RFU TMPRSS4 (11748680_a_at) / Fold change /veh TMPRSS4 (11748680_a_at) / RFU FAM212B (11763350_a_at) / Fold change /veh FAM212B (11763350_a_at) / RFU PLEKHG5 (11743358_a_at) / Fold change /veh PLEKHG5 (11743358_a_at) / RFU ZSCAN30 (11745921_a_at) / Fold change /veh ZSCAN30 (11745921_a_at) / RFU CMKLR1 (11741424_a_at) / Fold change /veh CMKLR1 (11741424_a_at) / RFU LOC101060620 /// MAPK8IP1 (11723275_at) / Fold change /veh LOC101060620 /// MAPK8IP1 (11723275_at) / RFU SPTSSB (11747773_x_at) / Fold change /veh SPTSSB (11747773_x_at) / RFU PRSS12 (11739890_at) / Fold change /veh PRSS12 (11739890_at) / RFU BIN1 (11741810_x_at) / Fold change /veh BIN1 (11741810_x_at) / RFU WNT11 (11732464_a_at) / Fold change /veh WNT11 (11732464_a_at) / RFU C10orf10 (11716521_a_at) / Fold change /veh C10orf10 (11716521_a_at) / RFU C5orf56 (11738089_at) / Fold change /veh C5orf56 (11738089_at) / RFU CYB561 (11721691_x_at) / Fold change /veh CYB561 (11721691_x_at) / RFU ANKRD19P (11752326_a_at) / Fold change /veh ANKRD19P (11752326_a_at) / RFU OR2T12 /// OR2T33 /// OR2T8 (11738714_s_at) / Fold change /veh OR2T12 /// OR2T33 /// OR2T8 (11738714_s_at) / RFU VCAN (11748164_a_at) / Fold change /veh VCAN (11748164_a_at) / RFU JSRP1 (11732532_at) / Fold change /veh JSRP1 (11732532_at) / RFU KRTAP10-11 (11738290_x_at) / Fold change /veh KRTAP10-11 (11738290_x_at) / RFU MYO3A (11730013_a_at) / Fold change /veh MYO3A (11730013_a_at) / RFU EBF3 (11725865_a_at) / Fold change /veh EBF3 (11725865_a_at) / RFU CAMK2N1 (11719241_x_at) / Fold change /veh CAMK2N1 (11719241_x_at) / RFU C5orf56 (11738088_a_at) / Fold change /veh C5orf56 (11738088_a_at) / RFU OLFML3 (11715873_a_at) / Fold change /veh OLFML3 (11715873_a_at) / RFU LOC100653217 /// NTM (11731650_a_at) / Fold change /veh LOC100653217 /// NTM (11731650_a_at) / RFU MAPK11 (11762145_a_at) / Fold change /veh MAPK11 (11762145_a_at) / RFU FIZ1 (11724087_x_at) / Fold change /veh FIZ1 (11724087_x_at) / RFU OASL (11726364_x_at) / Fold change /veh OASL (11726364_x_at) / RFU SOX15 (11748057_x_at) / Fold change /veh SOX15 (11748057_x_at) / RFU CD79A (11719716_a_at) / Fold change /veh CD79A (11719716_a_at) / RFU HIST1H1D (11736915_at) / Fold change /veh HIST1H1D (11736915_at) / RFU CASKIN2 (11723855_a_at) / Fold change /veh CASKIN2 (11723855_a_at) / RFU LOC730098 (11760151_x_at) / Fold change /veh LOC730098 (11760151_x_at) / RFU OR4N2 (11742367_at) / Fold change /veh OR4N2 (11742367_at) / RFU PRRT2 (11749266_a_at) / Fold change /veh PRRT2 (11749266_a_at) / RFU SNX32 (11753110_a_at) / Fold change /veh SNX32 (11753110_a_at) / RFU CDHR5 (11726645_a_at) / Fold change /veh CDHR5 (11726645_a_at) / RFU RCAN1 (11760418_a_at) / Fold change /veh RCAN1 (11760418_a_at) / RFU FAM167A (11723789_a_at) / Fold change /veh FAM167A (11723789_a_at) / RFU FAM26E (11764081_at) / Fold change /veh FAM26E (11764081_at) / RFU ISYNA1 (11749810_s_at) / Fold change /veh ISYNA1 (11749810_s_at) / RFU ACY1 (11761880_at) / Fold change /veh ACY1 (11761880_at) / RFU 11764098_at / Fold change /veh 11764098_at / RFU SAMD14 (11745864_x_at) / Fold change /veh SAMD14 (11745864_x_at) / RFU NPB (11741838_a_at) / Fold change /veh NPB (11741838_a_at) / RFU TMPRSS6 (11731388_a_at) / Fold change /veh TMPRSS6 (11731388_a_at) / RFU KRTAP10-2 (11738614_at) / Fold change /veh KRTAP10-2 (11738614_at) / RFU ARHGAP8 /// PRR5-ARHGAP8 (11727945_x_at) / Fold change /veh ARHGAP8 /// PRR5-ARHGAP8 (11727945_x_at) / RFU KRTAP5-7 /// NADSYN1 (11734609_at) / Fold change /veh KRTAP5-7 /// NADSYN1 (11734609_at) / RFU RASL12 (11751679_a_at) / Fold change /veh RASL12 (11751679_a_at) / RFU CDKN2B (11736163_a_at) / Fold change /veh CDKN2B (11736163_a_at) / RFU PRF1 (11729649_at) / Fold change /veh PRF1 (11729649_at) / RFU, ZNF638 /// ZNF638-IT1 / Fold change vs veh, ZNF638 /// ZNF638-IT1 / RFU, PANK3 / Fold change vs veh, PANK3 / RFU, SH3YL1 / Fold change vs veh, SH3YL1 / RFU, ZEB2 / Fold change vs veh, ZEB2 / RFU, NRIP1 / Fold change vs veh, NRIP1 / RFU, PTTG1IP / Fold change vs veh, PTTG1IP / RFU, CAPN2 / Fold change vs veh, CAPN2 / RFU, MED14 / Fold change vs veh, MED14 / RFU, SNORA58 / Fold change vs veh, SNORA58 / RFU, C1orf63 / Fold change vs veh, C1orf63 / RFU, LRRFIP1 / Fold change vs veh, LRRFIP1 / RFU, NDUFAF7 / Fold change vs veh, NDUFAF7 / RFU, SLC12A2 / Fold change vs veh, SLC12A2 / RFU, IBTK / Fold change vs veh, IBTK / RFU, ESF1 / Fold change vs veh, ESF1 / Fold change vs veh, TMEM50B / RFU, TAOK1 / Fold change vs veh, TAOK1 / RFU, ACBD3 / Fold change vs veh, ACBD3 / RFU, TMA16 / Fold change vs veh, TMA16 / RFU, RWDD3 / Fold change vs veh, RWDD3 / RFU, BCAT1 / Fold change vs veh, BCAT1 / RFU, EDEM3 / Fold change vs veh, EDEM3 / RFU, TMEM33 / Fold change vs veh, TMEM33 / RFU, WDR75 / Fold change vs veh, WDR75 / RFU, AHCTF1 / Fold change vs veh, AHCTF1 / RFU, TFRC / Fold change vs veh, TFRC / RFU, ZDHHC17 / Fold change vs veh, ZDHHC17 / RFU, NOM1 / Fold change vs veh, NOM1 / RFU, ARL8B / Fold change vs veh, ARL8B / RFU, ZBTB11 / Fold change vs veh, ZBTB11 / RFU, TAMM41 / Fold change vs veh, TAMM41 / RFU, KIAA1704 /// LOC100996395 / Fold change vs veh, KIAA1704 /// LOC100996395 / RFU, ING1 / Fold change vs veh, ING1 / RFU, TRMT61B / Fold change vs veh, TRMT61B / RFU, FUBP3 / Fold change vs veh, FUBP3 / RFU, TP53 / Fold change vs veh, TP53 / RFU, TNKS2 / Fold change vs veh, TNKS2 / RFU, ZFP14 / Fold change vs veh, ZFP14 / RFU, ACTR2 / Fold change vs veh, ACTR2 / RFU, PPP3R1 / Fold change vs veh, PPP3R1 / RFU, PIK3R1 / Fold change vs veh, PIK3R1 / RFU, HNRNPA1 / Fold change vs veh, HNRNPA1 / RFU, RNF170 / Fold change vs veh, RNF170 / RFU, ZNF28 / Fold change vs veh, ZNF28 / RFU, RNGTT / Fold change vs veh, RNGTT / RFU, OGT / Fold change vs veh, OGT / RFU, BRD1 / Fold change vs veh, BRD1 / RFU, MARS / Fold change vs veh, MARS / RFU, ZNF655 / Fold change vs veh, ZNF655 / RFU, FAHD1 / Fold change vs veh, FAHD1 / RFU, BDP1 / Fold change vs veh, BDP1 / RFU, LRRCC1 / Fold change vs veh, LRRCC1 / RFU, ARID1A / Fold change vs veh, ARID1A / RFU, ZNF146 / Fold change vs veh, ZNF146 / RFU, ZNF330 / Fold change vs veh, ZNF330 / RFU, GPN3 / Fold change vs veh, GPN3 / RFU, C9orf123 / Fold change vs veh, C9orf123 / RFU, N4BP2L2 / Fold change vs veh, N4BP2L2 / RFU, ARFIP1 / Fold change vs veh, ARFIP1 / RFU, FAM179B / Fold change vs veh, FAM179B / RFU, BCL10 / Fold change vs veh, BCL10 / RFU, UHRF1BP1L / Fold change vs veh, UHRF1BP1L / RFU, BET1 / Fold change vs veh, BET1 / RFU, CNOT2 / Fold change vs veh, CNOT2 / RFU, ZNF268 / Fold change vs veh, ZNF268 / Fold change vs veh, ZNF507 / RFU, DGCR2 / Fold change vs veh, DGCR2 / RFU, WDSUB1 / Fold change vs veh, WDSUB1 / Fold change vs veh, HSP90B1 /// MIR3652 / RFU, ADSS / Fold change vs veh, ADSS / RFU, GK / Fold change vs veh, GK / RFU, ZNF148 / Fold change vs veh, ZNF148 / RFU, TAF9 / Fold change vs veh, TAF9 / RFU, SLC1A5 / Fold change vs veh, SLC1A5 / RFU, SLMO2 / Fold change vs veh, SLMO2 / RFU, ABCC4 / Fold change vs veh, ABCC4 / RFU, LOC101060439 /// RAP1B / Fold change vs veh, LOC101060439 /// RAP1B / RFU, RFX7 / Fold change vs veh, RFX7 / RFU, GTPBP10 / Fold change vs veh, GTPBP10 / RFU, CNEP1R1 / Fold change vs veh, CNEP1R1 / RFU, BIVM-ERCC5 /// ERCC5 / Fold change vs veh, BIVM-ERCC5 /// ERCC5 / RFU, ILF3 / Fold change vs veh, ILF3 / RFU 11762660_at / Fold change /veh 11762660_at / RFU VCAN (11757783_s_at) / Fold change /veh VCAN (11757783_s_at) / RFU DDX43 (11728927_at) / Fold change /veh DDX43 (11728927_at) / RFU KRT8 (11758188_x_at) / Fold change /veh KRT8 (11758188_x_at) / RFU NKD1 (11759106_at) / Fold change /veh NKD1 (11759106_at) / RFU SRD5A1 (11742802_a_at) / Fold change /veh SRD5A1 (11742802_a_at) / RFU TPSAB1 /// TPSB2 (11721975_s_at) / Fold change /veh TPSAB1 /// TPSB2 (11721975_s_at) / RFU GSTM3 (11746129_a_at) / Fold change /veh GSTM3 (11746129_a_at) / RFU IL23R (11737362_x_at) / Fold change /veh IL23R (11737362_x_at) / RFU TMEM51 (11727254_a_at) / Fold change /veh TMEM51 (11727254_a_at) / RFU PIWIL2 (11732686_x_at) / Fold change /veh PIWIL2 (11732686_x_at) / RFU ORM1 (11744905_x_at) / Fold change /veh ORM1 (11744905_x_at) / RFU CCDC152 (11743942_at) / Fold change /veh CCDC152 (11743942_at) / RFU ECM1 (11717891_a_at) / Fold change /veh ECM1 (11717891_a_at) / RFU IL23R (11748794_a_at) / Fold change /veh IL23R (11748794_a_at) / RFU TNFAIP8L3 (11732012_x_at) / Fold change /veh TNFAIP8L3 (11732012_x_at) / RFU MBOAT4 (11741988_at) / Fold change /veh MBOAT4 (11741988_at) / RFU 11764193_at / Fold change /veh 11764193_at / RFU TMEM53 (11763286_at) / Fold change /veh TMEM53 (11763286_at) / RFU MAGEB2 (11727129_at) / Fold change /veh MAGEB2 (11727129_at) / RFU TMEM200A (11744735_a_at) / Fold change /veh TMEM200A (11744735_a_at) / RFU CCDC152 (11751479_a_at) / Fold change /veh CCDC152 (11751479_a_at) / RFU FAM211A (11726209_a_at) / Fold change /veh FAM211A (11726209_a_at) / RFU RGS16 (11746705_a_at) / Fold change /veh RGS16 (11746705_a_at) / RFU VCAN (11755009_s_at) / Fold change /veh VCAN (11755009_s_at) / RFU RHOB (11743442_s_at) / Fold change /veh RHOB (11743442_s_at) / RFU RGS16 (11720943_a_at) / Fold change /veh RGS16 (11720943_a_at) / RFU RGS16 (11720944_at) / Fold change /veh RGS16 (11720944_at) / RFU, VPS4B / Fold change vs veh, VPS4B / RFU, CREB1 / Fold change vs veh, CREB1 / RFU, DNAJC13 / Fold change vs veh, DNAJC13 / RFU, GNAQ / Fold change vs veh, GNAQ / RFU, CDK5R1 / Fold change vs veh, CDK5R1 / RFU, ZRANB3 / Fold change vs veh, ZRANB3 / RFU, CUL4A / Fold change vs veh, CUL4A / RFU, CCNY / Fold change vs veh, CCNY / RFU, UFL1 / Fold change vs veh, UFL1 / RFU, COG3 / Fold change vs veh, COG3 / RFU, DIAPH2 / Fold change vs veh, DIAPH2 / RFU, SKA2 / Fold change vs veh, SKA2 / RFU, AFF3 / Fold change vs veh, AFF3 / RFU, LMF1 / Fold change vs veh, LMF1 / RFU, IPO11 / Fold change vs veh, IPO11 / RFU, DFFB / Fold change vs veh, DFFB / RFU, FOXP1 / Fold change vs veh, FOXP1 / RFU, CARD8 / Fold change vs veh, CARD8 / RFU, STRN3 / Fold change vs veh, STRN3 / RFU, ADK / Fold change vs veh, ADK / RFU, RASSF2 / Fold change vs veh, RASSF2 / RFU, WIPF1 / Fold change vs veh, WIPF1 / RFU, LARP1B / Fold change vs veh, LARP1B / RFU, RASA1 / Fold change vs veh, RASA1 / RFU, RB1 / Fold change vs veh, RB1 / RFU, PPFIA1 / Fold change vs veh, PPFIA1 / RFU, MAT2A / Fold change vs veh, MAT2A / RFU, CCT5 / Fold change vs veh, CCT5 / RFU, WDR92 / Fold change vs veh, WDR92 / RFU, CUX1 / Fold change vs veh, CUX1 / RFU, TTC7A / Fold change vs veh, TTC7A / RFU, TMEM135 / Fold change vs veh, TMEM135 / RFU, DEPTOR / Fold change vs veh, DEPTOR / RFU, CPM / Fold change vs veh, CPM / RFU, DNAJB6 / Fold change vs veh, DNAJB6 / RFU, CACNA2D3 / Fold change vs veh, CACNA2D3 / RFU, DTX4 / Fold change vs veh, DTX4 / RFU, TFCP2 / Fold change vs veh, TFCP2 / RFU, GMCL1 /// GMCL1P1 / Fold change vs veh, GMCL1 /// GMCL1P1 / RFU, AEBP2 / Fold change vs veh, AEBP2 / RFU, SNHG1 /// SNORD22 /// SNORD25 /// SNORD26 /// SNORD27 /// SNORD28 /// SNORD29 /// SNORD31 / Fold change vs veh, SNHG1 /// SNORD22 /// SNORD25 /// SNORD26 /// SNORD27 /// SNORD28 /// SNORD29 /// SNORD31 / Fold change (Aza/veh), C12orf56 (ProbeSet 11735607_a_at) / Fold change (ACY-1035/veh), C12orf56 (ProbeSet 11735607_a_at) / Fold change (Aza/veh), FGFR1OP (ProbeSet 11751329_s_at) / Fold change (ACY-1035/veh), FGFR1OP (ProbeSet 11751329_s_at) / Fold change (Aza/veh), VPS36 (ProbeSet 11739960_a_at) / Fold change (ACY-1035/veh), VPS36 (ProbeSet 11739960_a_at) / RFU SYPL1 (11715823_x_at) / Fold change /veh SYPL1 (11715823_x_at) / RFU IGFBP7 (11715501_s_at) / Fold change /veh IGFBP7 (11715501_s_at) / RFU REEP3 (11722064_at) / Fold change /veh REEP3 (11722064_at) / RFU IGLL1 (11728026_x_at) / Fold change /veh IGLL1 (11728026_x_at): dose or concentration left out as unconfirmed", "details": "MV-4-11 cells, 48 hours"}
{"smiles": "Nc1ncn([C@@H]2O[C@H](CO)[C@@H](O)[C@H]2O)c(=O)n1", "note": "[azacitidine]", "values": [{"measurement": "RFU C10orf10 (11716522_x_at)", "value": 45.56, "unit": "RFU"}]}
